One assay relates to M2e. On the set-up: species or system BALB/c mice. The settings on record: mouse, in vivo, sc.
Assay [1] has as its system influenza virus A/PuertoRico/8/34. The arrangement: species or system BALB/c mice. The following applies: mouse, in vivo.
Another assay deals with T1, TLR2 (Mus musculus, UniProt Q9QUN7).
T1 construct: host or cells: HEK293 (HEK-Blue mTLR2)
The experiment in a line: TLR-2 stimulation, SEAP activity in HEK-Blue mTLR2 cells. Type of assay: cell-based. The procedure:
TLR-2 stimulation. HEK293 cells stably co-transfected with mTLR2 and SEAP (HEK-Blue mTLR2 cells, InvivoGen) were cultivated in Dulbecco's Modified Eagle's Medium supplemented with 4.5 g/I glucose, 10% (v/v) fetal bovine serum, 100 U/ml penicillin, […], […], 2 mM L-glutamine. At 50-80% confluency, cells were seeded in Hek-Blue detection medium (InvivoGen) at a density of 50,000 cells/well in a 96-well plate containing NRs and controls. After 16 h incubation at 37° C. in 5% CO2, absorbance was monitored at 630 nm.

“Also recorded” adds a separate entry of the source.

T1 sequence (Q9QUN7 25-784): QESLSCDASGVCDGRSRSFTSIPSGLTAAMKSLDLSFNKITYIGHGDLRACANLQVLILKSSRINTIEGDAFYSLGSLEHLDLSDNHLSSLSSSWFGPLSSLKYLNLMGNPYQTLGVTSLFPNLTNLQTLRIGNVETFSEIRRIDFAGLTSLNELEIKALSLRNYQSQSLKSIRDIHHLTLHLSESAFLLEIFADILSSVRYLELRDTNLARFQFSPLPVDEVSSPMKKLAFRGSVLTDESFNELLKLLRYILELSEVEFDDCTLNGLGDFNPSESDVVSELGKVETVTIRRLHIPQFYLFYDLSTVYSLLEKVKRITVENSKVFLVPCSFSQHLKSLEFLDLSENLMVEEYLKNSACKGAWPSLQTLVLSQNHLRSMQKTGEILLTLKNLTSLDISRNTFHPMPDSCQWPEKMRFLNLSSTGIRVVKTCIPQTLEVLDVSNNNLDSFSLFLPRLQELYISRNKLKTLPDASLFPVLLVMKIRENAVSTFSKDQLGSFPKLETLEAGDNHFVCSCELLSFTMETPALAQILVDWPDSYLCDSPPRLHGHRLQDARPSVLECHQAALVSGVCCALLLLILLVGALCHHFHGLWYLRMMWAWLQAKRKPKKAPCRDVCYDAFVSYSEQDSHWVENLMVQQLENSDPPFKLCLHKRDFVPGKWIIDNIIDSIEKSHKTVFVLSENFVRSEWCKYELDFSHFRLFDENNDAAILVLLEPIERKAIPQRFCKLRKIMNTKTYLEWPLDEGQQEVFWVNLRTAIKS

For orientation: mortality means the share of the test organisms that died. With SLLTEVETPIRNEWGSRSNGSSD [Peptide M2e], in the assay with M2e, the “M2e-specific antibody response (IgG)” value is reported as “did not raise any significant level of epitope-specific IgG; also recorded: very low antibody response; also recorded: significant antibody titer”. Moreover, in assay [1], the mortality is listed as 100%. Besides, the SEAP activity entry on TLR2 is on record as “no activity was measured”.

The values above are taken from patent US20230234991A1, “SELF-ASSEMBLED PEPTIDE NANORODS AND USES THEREOF” (TRANSFERT PLUS, SOCIÉTÉ EN COMMANDITE, priority 2020, published 2023).
